Results published in patent publication EP0850950A1, “PEPTIDE DERIVATIVES” (DAIICHI PHARMACEUTICAL CO., LTD., priority 1995, dated 1998).

System: Mice
Experiment: analgesic activity by pressure stimulation method (tail base)
Type: in vivo
Conditions: percent of maximum possible effect, maximum stimulating pressure 100 mmHg; for MPE(%) 1 mg/kg s.c. (%): 1 mg/kg subcutaneous administration (skin in the backs); for MPE(%) 10 mg/kg p.o.(%): 10 mg/kg oral administration
Method: The analgesic activities of the peptide derivatives of the present invention were evaluated by pressure stimulation method. Mice were subjected to pressure stimulation at the bases of their tails at a rate of 10 mmHg/second. […] For the experiments, mice that were preliminarily determined to respond to a pressure of 40-50 mmHg were used. The maximum stimulating pressure was 100 mmHg. Analgesic activity was calculated as percent of maximum possible effect (% of MPE) according to the following equation: % of MPE =(Pt - Po)/(Pc - Po)× 100 [formula] wherein Po is the pain reaction threshold before the administration of a drug; Pt is the pain reaction threshold "t" minutes after the administration of the drug; and Pc is the maximum stimulating pressure. The results of analgesic activity obtained from subcutaneous administration (skin in the backs) and oral administration are shown in Table 1.

## Cc1cc(O)cc(C)c1C[C@H](NC(=N)N)C(=O)N[C@H](CCCNC(=N)N)C(=O)N[C@@H](Cc1ccccc1)C(=O)N(C)CCC(=O)O [Example 2, H2NC(NH)-DMT-D-Arg-Phe-MeβAla-OH·diacetate]
  MPE(%) 1 mg/kg s.c. (%): 93.47%
  MPE(%) 10 mg/kg p.o.(%): 22.78%

## CN(CCC(=O)O)C(=O)[C@H](Cc1ccccc1)NC(=O)[C@@H](CCCNC(=N)N)NC(=O)[C@H](Cc1ccc(O)c(O)c1)NC(=N)N [Example 4, H2NC(NH)-DOPA-D-Arg-Phe-MeβAla-OH·diacetate]
  MPE(%) 1 mg/kg s.c. (%): 70.85%
  MPE(%) 10 mg/kg p.o.(%): 18.11%

## CN(CCC(=O)O)C(=O)[C@H](Cc1ccccc1)NC(=O)[C@@H](CCNC(=N)N)NC(=O)[C@H](Cc1ccc(O)cc1)NC(=N)N [Example 10, H2NC(NH)-Tyr-(R)-AGBA-Phe-MeβAla-OH·diacetate]
  MPE(%) 1 mg/kg s.c. (%): 42.78%
  MPE(%) 10 mg/kg p.o.(%): 10.62%

## CC(=N)NCCC[C@@H](NC(=O)[C@H](Cc1ccc(O)cc1)NC(=N)N)C(=O)N[C@@H](Cc1ccccc1)C(=O)N(C)CCC(=O)O [Example 17, H2NC(NH)-Tyr-(R)-IEPE-Phe-MeβAla-OH·diacetate]
  MPE(%) 1 mg/kg s.c. (%): 100%
  MPE(%) 10 mg/kg p.o.(%): 88.34%

## CC(=N)N[C@@H](Cc1ccc(O)cc1)C(=O)N[C@H](CCCCN)C(=O)N[C@@H](Cc1ccccc1)C(=O)N(C)CCC(=O)O [Example 19, H3C-C(NH)-Tyr-D-Lys-Phe-MeβAla-OH·diacetate]
  MPE(%) 1 mg/kg s.c. (%): 87.11%
  MPE(%) 10 mg/kg p.o.(%): 82.29%

## CN(CCC(=O)O)C(=O)[C@H](Cc1ccc(O)cc1)NC(=O)[C@@H](CCCNC(=N)N)NC(=O)[C@H](Cc1ccc(O)cc1)NC(=N)N [Example 25, H2NC(NH)-Tyr-D-Arg-Tyr-MeβAla-OH·diacetate]
  MPE(%) 1 mg/kg s.c. (%): 22.55%
  MPE(%) 10 mg/kg p.o.(%): 10.96%

## CN(CCC(=O)O)C(=O)[C@H](CCc1ccccc1)NC(=O)[C@@H](CCCNC(=N)N)NC(=O)[C@H](Cc1ccc(O)cc1)NC(=N)N [Example 26, N-H2NC(NH)-Tyr-D-Arg-APBA-MeβAla-OH·diacetate]
  MPE(%) 1 mg/kg s.c. (%): 32.83%
  MPE(%) 10 mg/kg p.o.(%): 14.44%

## CN(CCC(=O)O)C(=O)[C@H](CC1CCCCC1)NC(=O)[C@@H](CCCNC(=N)N)NC(=O)[C@H](Cc1ccc(O)cc1)NC(=N)N [Example 27, H2NC(NH)-Tyr-D-Arg-Cha-MeβAla-OH·diacetate]
  MPE(%) 1 mg/kg s.c. (%): 52.14%
  MPE(%) 10 mg/kg p.o.(%): 33.15%

## CC(=N)N[C@@H](Cc1ccc(O)cc1)C(=O)N[C@H](CC[S+](C)[O-])C(=O)N[C@@H](Cc1ccccc1)C(=O)N(C)CCC(=O)O (stereo partly drawn) [Example 31, H3C-C(NH)-Tyr-D-AMSB-Phe-MeβAla-OH·acetate]
  MPE(%) 1 mg/kg s.c. (%): 100%
  MPE(%) 10 mg/kg p.o.(%): 96.18%

## CC(=N)NC[C@@H](NC(=O)[C@H](Cc1ccc(O)cc1)NC(=N)N)C(=O)N[C@@H](Cc1ccccc1)C(=O)N(C)CCC(=O)O [Example 32, H2NC(NH)-Tyr-D-IEPR-Phe-MeβAla-OH·diacetate]
  MPE(%) 1 mg/kg s.c. (%): 66.61%
  MPE(%) 10 mg/kg p.o.(%): 52.72%
